Assay results taken from patent publication US20080234262A1 (Wyeth, priority 2007, published 2008).

Key:
PI3K = PI3K (Homo sapiens, UniProt P42336); experiment: Fluorescence polarization assay for PI3K; type: biochemical; details: PI3Kα; read-out: PI3Kα IC50;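 further: PI3K kinase reaction on PIP2 with ATP, 30-60 min, product sensed by GST-GRP with red probe in fluorescence polarization (mP), controls without enzyme and at zero time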
prostate line LNCap = experiment: In vitro cell culture growth assay (MTS), LNCap; type: cell-based, human; details: LNCap cells, three days after drug treatment;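 further: viable cell density read by absorbance at 490 nm, growth expressed as percent of vehicle-treated cells on the same plate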
breast line MDA468 = experiment: In vitro cell culture growth assay (MTS), MDA468; type: cell-based, human; details: MDA468 cells, three days after drug treatment
Method in brief: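 Growth measured as percent of same-plate vehicle control by MTS metabolic dye conversion (A490). Breast MDA468 and prostate LNCap cells, plated a day ahead, were exposed to compounds for 3 days.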

PI3K, sequence (P42336 whole entry): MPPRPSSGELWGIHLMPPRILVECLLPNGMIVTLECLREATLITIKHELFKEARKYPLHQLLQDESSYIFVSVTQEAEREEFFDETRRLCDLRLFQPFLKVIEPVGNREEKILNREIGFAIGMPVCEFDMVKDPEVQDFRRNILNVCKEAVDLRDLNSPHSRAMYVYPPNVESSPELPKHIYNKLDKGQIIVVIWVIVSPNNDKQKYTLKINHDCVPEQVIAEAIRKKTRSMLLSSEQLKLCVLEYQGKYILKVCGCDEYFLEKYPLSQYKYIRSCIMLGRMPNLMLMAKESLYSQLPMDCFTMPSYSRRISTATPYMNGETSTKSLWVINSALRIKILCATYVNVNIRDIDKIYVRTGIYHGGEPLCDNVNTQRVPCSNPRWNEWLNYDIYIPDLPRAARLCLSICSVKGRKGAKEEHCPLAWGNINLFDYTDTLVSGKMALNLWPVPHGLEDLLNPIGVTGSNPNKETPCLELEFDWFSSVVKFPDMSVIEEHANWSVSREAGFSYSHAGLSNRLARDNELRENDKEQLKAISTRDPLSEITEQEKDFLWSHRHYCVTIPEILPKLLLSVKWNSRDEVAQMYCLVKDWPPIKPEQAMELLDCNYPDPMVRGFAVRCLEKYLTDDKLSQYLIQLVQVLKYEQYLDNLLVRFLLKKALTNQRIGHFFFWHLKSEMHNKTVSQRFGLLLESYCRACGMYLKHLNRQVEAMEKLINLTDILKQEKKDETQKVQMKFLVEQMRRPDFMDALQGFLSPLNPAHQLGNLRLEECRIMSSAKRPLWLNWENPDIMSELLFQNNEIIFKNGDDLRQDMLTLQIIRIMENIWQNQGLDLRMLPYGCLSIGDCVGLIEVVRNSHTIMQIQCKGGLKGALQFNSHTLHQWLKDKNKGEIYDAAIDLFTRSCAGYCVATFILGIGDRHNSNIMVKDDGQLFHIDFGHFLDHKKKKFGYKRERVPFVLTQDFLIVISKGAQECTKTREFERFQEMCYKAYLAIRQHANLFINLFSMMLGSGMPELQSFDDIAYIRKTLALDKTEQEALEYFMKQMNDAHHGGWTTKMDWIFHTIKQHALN
PI3K, sequence (P27986 whole entry partner): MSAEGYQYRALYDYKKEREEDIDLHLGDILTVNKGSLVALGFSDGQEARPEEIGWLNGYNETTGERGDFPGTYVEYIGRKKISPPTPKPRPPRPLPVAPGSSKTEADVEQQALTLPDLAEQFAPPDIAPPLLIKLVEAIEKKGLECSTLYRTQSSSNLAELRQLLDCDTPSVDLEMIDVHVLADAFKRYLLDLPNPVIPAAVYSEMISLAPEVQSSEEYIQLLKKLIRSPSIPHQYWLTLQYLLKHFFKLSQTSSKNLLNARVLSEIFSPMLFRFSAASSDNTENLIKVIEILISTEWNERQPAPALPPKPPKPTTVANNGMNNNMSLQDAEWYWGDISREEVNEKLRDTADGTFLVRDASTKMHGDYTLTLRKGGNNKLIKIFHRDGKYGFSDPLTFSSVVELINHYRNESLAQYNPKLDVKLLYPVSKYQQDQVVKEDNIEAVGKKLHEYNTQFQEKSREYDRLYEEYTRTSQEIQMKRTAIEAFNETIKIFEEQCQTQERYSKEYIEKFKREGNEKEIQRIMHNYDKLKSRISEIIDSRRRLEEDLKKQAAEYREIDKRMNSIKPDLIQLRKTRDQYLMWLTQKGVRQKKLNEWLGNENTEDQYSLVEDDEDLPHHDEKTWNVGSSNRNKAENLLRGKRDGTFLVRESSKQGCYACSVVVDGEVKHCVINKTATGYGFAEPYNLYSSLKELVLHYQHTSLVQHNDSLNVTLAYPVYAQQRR

Compound	IC50 (PI3K)	IC50 (prostate line LNCap)	IC50 (prostate line LNCap; Homo sapiens, LNCaP, 72 h)	IC50 (breast line MDA468)	IC50 (breast line MDA468; Homo sapiens, 72 h)
1-(4-{1-[1-(methoxymethyl)piperidin-4-yl]-4-morpholin-4-yl-1H-pyrazolo[3,4-d]pyrimidin-6-yl}phenyl)-3-methylurea [Compound 796]	1560 nM	22000 nM	–	30000 nM	–
c1ccc(-n2ncc3c(N4CCOCC4)nc(-c4ccc[nH]4)nc32)cc1 [Compound 6]	1350 nM	–	2400 nM	–	11000 nM
Oc1cccc(-c2nc(N3CCOCC3)c3cnn(C4CCNCC4)c3n2)c1 [Compound 9]	36 nM	–	370 nM	–	2200 nM
COc1cncc(-c2nc(N3CCOCC3)c3cnn(C)c3n2)c1 [Compound 11]	279 nM	–	4700 nM	–	5000 nM
Oc1cccc(-c2nc(N3CCOCC3)c3cnn(C4CCN(Cc5ccco5)CC4)c3n2)c1 [Compound 15]	55 nM	–	74 nM	–	600 nM
Oc1cccc(-c2nc(N3CCOCC3)c3cnn(C4CCN(CC5CCCCC5)CC4)c3n2)c1 [Compound 17]	107 nM	–	310 nM	–	2000 nM
Oc1cccc(-c2nc(N3CCOCC3)c3cnn(C4CCN(Cc5ccc(Cl)cc5)CC4)c3n2)c1 [Compound 19]	11 nM	–	450 nM	–	1700 nM
O=C(c1ccc(Cl)cc1)N1CCC(n2ncc3c(N4CCOCC4)nc(-c4cccc(O)c4)nc32)CC1 [Compound 27]	41 nM	–	550 nM	–	2400 nM
COc1ccc(C(=O)N2CCC(n3ncc4c(N5CCOCC5)nc(-c5cccc(O)c5)nc43)CC2)cc1 [Compound 28, 3-{1-[1-(4-methoxybenzoyl)piperidin-4-yl]-4-morpholin-4-yl-1H-pyrazolo[3,4-d]pyrimidin-6-yl}phenol]	33 nM	–	220 nM	–	1100 nM
c1ccc(CN2CCC(n3ncc4c(N5CCOCC5)nc(-c5ccc6cc[nH]c6c5)nc43)CC2)cc1 [Compound 49]	1270 nM	–	2100 nM	–	5800 nM
O=C(O)CCC(=O)Nc1ccc(-c2nc(N3CCOCC3)c3cnn(C4CCN(Cc5ccccc5)CC4)c3n2)cc1 [Compound 81]	3680 nM	–	60000 nM	–	45000 nM
NC(=O)c1cccc(-c2nc(N3CCOCC3)c3cnn(C4CCN(Cc5ccccc5)CC4)c3n2)c1 [Compound 82]	877 nM	–	13000 nM	–	29000 nM
NS(=O)(=O)c1cccc(-c2nc(N3CCOCC3)c3cnn(C4CCN(Cc5ccccc5)CC4)c3n2)c1 [Compound 83]	2410 nM	–	4000 nM	–	7000 nM
CS(=O)(=O)Nc1cccc(-c2nc(N3CCOCC3)c3cnn(C4CCN(Cc5ccccc5)CC4)c3n2)c1 [Compound 84]	4200 nM	–	12000 nM	–	12000 nM
NS(=O)(=O)c1ccc(-c2nc(N3CCOCC3)c3cnn(C4CCN(Cc5ccccc5)CC4)c3n2)cc1 [Compound 85]	2280 nM	–	8000 nM	–	9000 nM
CNS(=O)(=O)c1ccc(-c2nc(N3CCOCC3)c3cnn(C4CCN(Cc5ccccc5)CC4)c3n2)cc1 [Compound 86]	4660 nM	–	7200 nM	–	6500 nM
CN(C)S(=O)(=O)c1ccc(-c2nc(N3CCOCC3)c3cnn(C4CCN(Cc5ccccc5)CC4)c3n2)cc1 [Compound 87]	780 nM	–	23000 nM	–	60000 nM

Further lines, with some results ahead:

IC50 (PI3K)	IC50 (prostate line LNCap)	IC50 (prostate line LNCap; Homo sapiens, LNCaP, 72 h)	Compound	IC50 (breast line MDA468)	IC50 (breast line MDA468; Homo sapiens, 72 h)
2190 nM	–	60000 nM	Fc1cc(F)cc(-c2nc(N3CCOCC3)c3cnn(C4CCN(Cc5ccccc5)CC4)c3n2)c1 [Compound 88]	–	58000 nM
5190 nM	–	15000 nM	Cn1ccc2cc(-c3nc(N4CCOCC4)c4cnn(C5CCN(Cc6ccccc6)CC5)c4n3)ccc21 [Compound 89]	–	20000 nM
4640 nM	–	8000 nM	O=S(=O)(c1ccccc1)N1CCC(n2ncc3c(N4CCOCC4)nc(-c4ccc5[nH]ccc5c4)nc32)CC1 [Compound 92]	–	2500 nM
337 nM	–	1100 nM	O=C(CCl)N1CCC(n2ncc3c(N4CCOCC4)nc(-c4ccc5[nH]ccc5c4)nc32)CC1 [Compound 93]	–	1200 nM
1460 nM	–	1900 nM	CN(C)CC(=O)N1CCC(n2ncc3c(N4CCOCC4)nc(-c4ccc5[nH]ccc5c4)nc32)CC1 [Compound 94]	–	4200 nM
2460 nM	–	700 nM	CN(C)C(=O)N1CCC(n2ncc3c(N4CCOCC4)nc(-c4ccc5[nH]ccc5c4)nc32)CC1 [Compound 95]	–	2100 nM
449 nM	–	1300 nM	CNCC(=O)N1CCC(n2ncc3c(N4CCOCC4)nc(-c4ccc5[nH]ccc5c4)nc32)CC1 [Compound 96]	–	2800 nM
18 nM	–	310 nM	CCn1ncc2c(N3CCOCC3)nc(-c3cccc(O)c3)nc21 [Compound 97]	–	1300 nM
754 nM	–	60000 nM	C1=C(c2nc(N3CCOCC3)c3cnn(-c4ccccc4)c3n2)CCOC1 [Compound 98]	–	33000 nM
332 nM	–	3500 nM	CS(=O)(=O)Nc1ccc(-c2nc(N3CCOCC3)c3cnn(-c4ccccc4)c3n2)cc1 [Compound 99]	–	5000 nM
359 nM	–	60000 nM	NC(=O)c1ccc(-c2nc(N3CCOCC3)c3cnn(-c4ccccc4)c3n2)cc1 [Compound 100]	–	60000 nM
320 nM	–	3200 nM	CN(C)CCCNC(=O)c1ccc(-c2nc(N3CCOCC3)c3cnn(-c4ccccc4)c3n2)cc1 [Compound 102]	–	7500 nM
580 nM	–	3900 nM	CN(C)CCNC(=O)c1ccc(-c2nc(N3CCOCC3)c3cnn(-c4ccccc4)c3n2)cc1 [Compound 103]	–	5000 nM
244 nM	–	3700 nM	CN(C)CCNC(=O)c1cccc(-c2nc(N3CCOCC3)c3cnn(-c4ccccc4)c3n2)c1 [Compound 104]	–	3300 nM
3080 nM	–	60000 nM	c1ccc(-n2ncc3c(N4CCOCC4)nc(-c4ccc5sccc5c4)nc32)cc1 [Compound 105]	–	60000 nM
248 nM	–	45000 nM	O=C(O)CCC(=O)Nc1ccc(-c2nc(N3CCOCC3)c3cnn(-c4ccccc4)c3n2)cc1 [Compound 109]	–	30000 nM
–	–	70 nM	CNC(=S)Nc1ccc(-c2nc(N3CCOCC3)c3cnn(C4CCN(Cc5cccnc5)CC4)c3n2)cc1 [Example 377, 1-methyl-3-(4-{4-morpholin-4-yl-1-[1-(pyridin-3-ylmethyl)piperidin-4-yl]-1H-pyrazolo[3,4-d]pyrimidin-6-yl}phenyl)thiourea]	–	500 nM
–	–	1400 nM	N#CN=C(N)Nc1ccc(-c2nc(N3CCOCC3)c3cnn(C4CCN(Cc5cccnc5)CC4)c3n2)cc1 [Example 406, 2-cyano-1-(4-{4-morpholin-4-yl-1-[1-(pyridin-3-ylmethyl)piperidin-4-yl]-1H-pyrazolo[3,4-d]pyrimidin-6-yl}phenyl)guanidine]	–	1100 nM
–	–	600 nM	COC(=O)Nc1ccc(-c2nc(N3CCOCC3)c3cnn(C4CCN(C(=O)c5ccc(C#N)cc5)CC4)c3n2)cc1 [Example 447, methyl (4-{1-[1-(4-cyanobenzoyl)piperidin-4-yl]-4-morpholin-4-yl-1H-pyrazolo[3,4-d]pyrimidin-6-yl}phenyl)carbamate]	–	1200 nM
